Reference: paper PMC8780078, “Long‐acting and extended‐release implant and nanoformulations with a synergistic antiretroviral two‐drug combination controls HIV‐1 infection in a humanized mouse model” (Bioengineering & Translational Medicine, 2021)

What was measured:
HIV‐1 [1] = assay: Antiviral potency in cellular assays / HIV cell culture; assay type: cell-based; settings: Human immunodeficiency virus 1, in Discussion
[2] = Pharmacokinetics of drug release from subdermal implants in Hu‐PBL mice (serum, HPLC); assay type: in vivo; settings: end of study sera (Day 49 nanoformulations, Day 56 implants) vs EC90 in HIV cell culture
Description: Hu‐mice were anesthetized by i.p. injection of ketamine (80 mg/kg) and xylazine (12 mg/kg) in PBS (10 ml/kg) based on individual mouse body weight. After anesthetizing, approximately 1–2 cm square of the dorsal skin was shaved using an electric hair clipper, the area was cleaned with ethanol and disinfected with Betadine. Using a sterile disposable surgical blade, an incision of 4–5 mm was made through the skin. Gently, 2 cm × 3 cm subcutaneous pockets were created with forceps and implants loaded with Compound I and EFdA were co‐inserted at the same site. The opening was sutured using absorbable sutures followed by subcutaneous administration of 0.05 mg/kg buprenorphine. The animals were kept warm using the temperature‐controlled heating pads until they regained consciousness. Toxicity was evaluated by clinical observations, cage‐side observations (twice daily), and body weight (at least weekly). […]
The data were plotted as a concentration‐time curve using PRISM 9.0 (GraphPad Software Inc., La Jolla, CA). […] was calculated using Graph pad prism where EC50 of each compound was used along with Hill slope of 1. The predicted area under the curve (AUC) for drug concentration in blood serum against time (AUC predicted) was calculated based on the linear trapezoid method.[29] AUC was also calculated for PVLs and CD4+ T‐cells in infection experiments. […]

HIV‐1 [3] = settings: cited from earlier work
HERG ion channel = tested on: HERG ion channel; parameters: method as in PMID 28167742; settings: cited from earlier work

| SMILES | EC90 (HIV‐1 [1]) [ng/mL] | EC90 (HIV‐1 [1]; from EC50 with Hill slope of 1) [nM] | serum concentration fold above EC90 [2] | synergy of Compound I with EFdA (HIV‐1 [3]; cell culture) | activity against wild‐type HIV‐1 strains and drug resistant variants (HIV‐1 [3]; wild‐type, Y181C and K103N) | inhibition of the HERG ion channel (HERG ion channel) |
| --- | --- | --- | --- | --- | --- | --- |
| C#C[C@]1(CO)O[C@@H](n2cnc3c(N)nc(F)nc32)C[C@@H]1O [EFdA, 4′‐ethynyl‐2‐fluoro‐2′‐deoxyadenosine, reference compound] | 5 | 17.1 | ~1100 fold | – | – | – |
| N#Cc1ccc2c(Oc3ccc(F)cc3OCCn3ccc(=O)[nH]c3=O)cc(F)cc2c1 [Compound I] | 10 | 25.2 | approximately 100 fold | potent synergy | active in the nanomolar range | no inhibition |
